Reference: ChEMBL document CHEMBL5376003, “Structure-Activity Relationship of FL118 Platform Position 7 Versus Position 9-Derived Compounds and Their Mechanism of Action and Antitumor Activity” (J Med Chem, 2023)
The source made the active and inactive calls. The calls are words filed in the database; no cut-off is given here.

Columns and labels:
HCT-116 [1] = experiment: Induction of apoptosis in human HCT-116 cells assessed as early apoptotic cells at 2.5 nM incubated for 48 hrs by Annexin V-FITC/PI staining based flow cytometry assay; format: functional
HCT-116 [2] = experiment: Induction of apoptosis in human HCT-116 cells assessed as increase in caspase-9 activity incubated for 48 hrs by BCA protein assay; format: functional, cell-based
HCT-116 [3] = experiment: Induction of apoptosis in human HCT-116 cells assessed as downregulation of Bcl-2 protein expression incubated for 48 hrs by Western blotting analysis; format: functional, cell-based
PDX27454 [4] = experiment: Antitumor activity against human PDX27454 cells xenografted in SCID mouse model assessed as reduction in tumor growth at 5 to 15 mg/kg,ip administrated once per week for 4 weeks; format: functional, organism-based; settings: dose 5-15 mg/kg
HCT-116 [5] = experiment: Induction of cell cycle arrest in human HCT-116 cells assessed as accumulation of cells at S phase at 2.5 to 10 nM incubated for 48 hrs by Annexin V-FITC/PI staining based flow cytometry assay; format: functional; settings: dose 2.5-10 nM
HCT-116 [6] = experiment: Induction of apoptosis in human HCT-116 cells assessed as late apoptotic cells at 5 nM incubated for 48 hrs by Annexin V-FITC/PI staining based flow cytometry assay; format: functional
[7] = Toxicity in SCID mouse xenografted with human PDX27454 cells assessed as animal death at 10 mg/kg,ip administrated once per week for 4 weeks; format: organism-based; settings: in vivo, 672 h
PDX27454 [8] = experiment: Antitumor activity against human PDX27454 cells xenografted in SCID mouse model assessed as reduction in tumor growth at 2.5 to 10 mg/kg,ip administrated once per week for 4 weeks; format: functional, organism-based; settings: dose 2.5-10 mg/kg
[9] = Toxicity in SCID mouse xenografted with human PDX27454 cells assessed as body weight loss at 2.5 to 5 mg/kg,ip administrated once per week for 4 weeks; format: organism-based; settings: in vivo, 672 h, dose 2.5-5 mg/kg
[10] = Toxicity in SCID mouse xenografted with human PDX27454 cells assessed as body weight loss at 8 mg/kg,po administrated once per week for 3 weeks; format: organism-based; settings: in vivo, 504 h
PDX27454 [11] = experiment: Antitumor activity against human PDX27454 cells xenografted in SCID mouse model assessed as reduction in tumor growth at 15 mg/kg,ip administrated once per week for 4 weeks; format: functional, organism-based
[12] = Toxicity in SCID mouse xenografted with human PDX27454 cells assessed as body weight loss at 10 mg/kg,ip administrated once per week for 4 weeks; format: organism-based; settings: in vivo, 672 h
[13] = Toxicity in SCID mouse xenografted with human PDX27454 cells assessed as body weight loss at 15 mg/kg,po administrated once per week for 4 weeks; format: organism-based; settings: in vivo, 672 h
HCT-116 [14] = experiment: Induction of apoptosis in human HCT-116 cells assessed as downregulation of GNPDA2 gene expression at 10 to 500 nM incubated for 6 to 48 hrs by RNA analysis; format: functional, cell-based; settings: dose 10-500 nM, time 6-48 hrs
HCT-116 [15] = experiment: Induction of apoptosis in human HCT-116 cells assessed as downregulation of DHODH gene expression at 10 to 500 nM incubated for 6 to 48 hrs by RNA analysis; format: functional, cell-based; settings: dose 10-500 nM, time 6-48 hrs
[16] = Toxicity in SCID mouse assessed as maximum tolerated dose at po administration; format: organism-based; settings: in vivo

## CC[C@@]1(O)C(=O)OCc2c1cc1n(c2=O)Cc2c-1nc1cc3c(cc1c2-c1cc(OC)cc(OC)c1)OCO3
HCT-116 [1]
  Activity: 20.76%
HCT-116 [2]
  Activity: Dose-Dependent Effect
HCT-116 [3]
  Activity: Dose-Dependent Effect
PDX27454 [4]
  Activity: Active
HCT-116 [5]
  Activity: Active
HCT-116 [6]
  Activity: 9.79%

## CC[C@@]1(O)C(=O)OCc2c1cc1n(c2=O)Cc2c-1nc1cc3c(cc1c2-c1ccc(OC)cc1)OCO3
[7]
  Activity: Toxic
PDX27454 [8]
  Activity: Active
[9]
  Activity: Toxic
[10]
  Activity: 20%

## CCc1ccc(-c2c3c(nc4cc5c(cc24)OCO5)-c2cc4c(c(=O)n2C3)COC(=O)[C@]4(O)CC)cc1
PDX27454 [11]
  Activity: inactive
[12]
  Activity: Non-Toxic
[13]
  Activity: Toxic

## CC[C@@]1(O)C(=O)OCc2c1cc1n(c2=O)Cc2cc3cc4c(cc3nc2-1)OCO4
HCT-116 [14]
  Activity: Active
HCT-116 [15]
  Activity: Active
[16]
  MTD: 10 mg/kg
